# According to patent US5411984A, “Water soluble analogs and prodrugs of taxol” (Virginia Tech Intellectual Properties, Inc., priority 1992, dated 1995):
# Key:
# [1] = Magri and Kingston; cited from earlier work
# [2] = cited from earlier work
# [3] = cited from earlier work; remark: listed apart in the source
# P-388 = conditions: cited from earlier work
# [4] = Relative solubility by the 1-octanol and water partition method (UV absorption at 228 nm), taxol = 1
# Method: In separate experiments, taxol derivative 4 and 2'-succinyl taxol (R=NaO2 CCH2 CH2 CO2) were dissolved in a mildly basic aqueous solution.
# *Solubilities were determined by using the 1octanol and water partition
# method.Sample concentrations in water were determined by UV absorptions a […]
# Solubility in pure water = format: physicochemical
# [5] = Stability in pH 5 buffer / mildly acidic aqueous solution (HPLC or TLC, onset of cloudiness); format: physicochemical; conditions: method (b): 0.5 mg in 0.1 ml EtOH and 0.9 ml pH 5 buffer, room temperature
# Method: **Stabilities were determined in pH 5 buffer solution by one of the two
# methods indicated below.
# (a) 9.5 mg of sample was dissolved in 0.2 ml of EtOH and 0.2 ml of pH 5
# buffer solution and let stand at room temperature. The progress of
# decomposition was checked by HPLC or TLC and observation of the onset of
# (b) 0.5 mg of sample was dissolved in 0.1 ml of EtOH and 0.9 ml of pH 5
# buffer solution, the other conditions were the same as in (a) above. All
# samples were stable under these conditions for at least 24 hours. No
# hydrolysis was detectable by HPLC or TLC during this time period.
# [6] = test system: drug-refractory ovarian cancer; conditions: in vivo; cited from earlier work
# [7] = Cremophor EL diluent, without prolonged infusion and premedication with antiallergic drugs; cited from earlier work
# metastatic breast cancer = conditions: in vivo; cited from earlier work
# tubulin = conditions: cited from earlier work
compound,measurement,setting,value
CC(=O)O[C@H]1C(=O)[C@@]2(C)[C@H]([C@H](OC(=O)c3ccccc3)[C@]3(O)C[C@H](OC(=O)[C@H](O[Si](C)(C)C(C)(C)C)[C@@H](NC(=O)c4ccccc4)c4ccccc4)C(C)=C1C3(C)C)[C@]1(OC(C)=O)CO[C@@H]1C[C@@H]2O [2'-(t-butyldimethylsilyl) taxol],biological activity,[1],essentially inactive
"CC(=O)O[C@H]1C(=O)[C@@]2(C)[C@H]([C@H](OC(=O)c3ccccc3)[C@]3(O)C[C@H](OC(=O)[C@H](OC(=O)CCN)[C@@H](NC(=O)c4ccccc4)c4ccccc4)C(C)=C1C3(C)C)[C@]1(OC(C)=O)CO[C@@H]1C[C@@H]2O [Compound 1, 2'-(β-alanyl)-taxol]",in vivo activity,[2],active in vivo
same,aqueous solubility,[3],increased water solubility
"CC(=O)O[C@H]1C(=O)[C@@]2(C)[C@H]([C@H](OC(=O)c3ccccc3)[C@]3(O)C[C@H](OC(=O)[C@H](OC(=O)CCC(=O)O)[C@@H](NC(=O)c4ccccc4)c4ccccc4)C(C)=C1C3(C)C)[C@]1(OC(C)=O)CO[C@@H]1C[C@@H]2O [Compound 2, 2'-succinyltaxol]",P-388 in vivo activity compared with taxol,P-388,diminished
same,aqueous solubility,[3],increased water solubility
"CC(=O)O[C@H]1C(=O)[C@@]2(C)[C@H]([C@H](OC(=O)c3ccccc3)[C@]3(O)C[C@H](OC(=O)[C@H](OC(=O)c4cc(C(=O)O)c(C(=O)O)cc4C(=O)O)[C@@H](NC(=O)c4ccccc4)c4ccccc4)C(C)=C1C3(C)C)[C@]1(OC(C)=O)CO[C@@H]1C[C@@H]2O [Compound 9b, Taxol 2'-(trisodium 1,2,4,5-benzenetetracarboxylate)]",times more water soluble than taxol,[4]; compared with taxol,more than 1500 times
same,solubility,Solubility in pure water,> 227 mg/mL
same,Stabilities at pH 5,[5],> 24 h
CC(=O)O[C@H]1C(=O)[C@@]2(C)[C@H]([C@H](OC(=O)c3ccccc3)[C@]3(O)C[C@H](OC(=O)[C@H](O)[C@@H](NC(=O)c4ccccc4)c4ccccc4)C(C)=C1C3(C)C)[C@]1(OC(C)=O)CO[C@@H]1C[C@@H]2O [Taxol],clinical activity against drug-refractory ovarian cancer,[6],excellent clinical activity
same,allergic reactions,[7],severe allergic reactions and even death
same,Relative Solubility (p'),[4],1
same,clinical activity in metastatic breast cancer,metastatic breast cancer,active drug
same,effect on depolymerization of tubulin,tubulin,prevents depolymerization of the tubulin
same,effect on microtubule / tubulin polymer formation,tubulin,promotes formation of microtubules
same,aqueous solubility,[3],low water solubility
